Results from patent US8168806B2, “Boron chelate complexes” (Chemetall GmbH, priority 2001, dated 2012).
Like-named read-outs stand apart in the source and are kept apart here.

Key:
[1] = Qualitative solubility of the product of Example 3 in organic solvents; assay type: physicochemical; settings: in propylene carbonate, γ-butyrolactone, 1,2-dimethyoxyethane, acetone and dimethylformamide
[2] = room temperature
[3] = room temperature; for Cond. (conductivity): at the concentration (mmole/g) printed in the cell to the left
[4] = thermogravimetry
[5] = 0.5 molar solution in γ-butyrolactone, nickel electrodes, FIG. 1
[6] = prior art statement; cited from earlier work
[7] = 5% solution in water, stirring for 2 hours, room temperature
[8] = in propylene carbonate; Xu and Angell 2001; cited from earlier work
[9] = in 1,2-DME (1,2-dimethoxyethane)

Row | SMILES | Solubility in words [1] | Solubility [2, 9] [mol/kg] | Solubility ([2]; in PC (propylene carbonate)) [mol/kg] | Solubility ([2]; in THF (tetrahydrofuran)) [mol/kg] | Solubility ([2]; in acetone) [mol/kg] | Solubility ([2]; in γ-BL (γ-butyrolactone)) [mol/kg] | Concn. column: solubility in words ([3]; in 1,2-DME) | Cond. (conductivity) ([3]; in 1,2-DME) [mS/cm] | Concn. column: solubility in words ([3]; in THF) | Cond. (conductivity) ([3]; in THF) [mS/cm] | Cond. (conductivity) ([3]; in γ-BL) [mS/cm] | TGA: decomposition starts at [4] | Electrochemical window (upper limit of stability, Li/Li+=0) [5] | Electrochemical stability / electrochemical window up to [6] | Degree of hydrolysis [7] [%] | Solubility [8] [M]
1 | O=C1O[B-]2(OC1=O)OC(=O)c1ccccc1O2.[H+] [HSOB, hydrogen-(salicylato, oxalato)borate] | extremely soluble | – | – | – | – | – | – | – | – | – | – | – | – | – | – | –
2 | CC1O[B-]2(OC1=O)OC(=O)C(C)O2.[Li+] (stereo not shown) [LLB, Lithium-bis(lactato)borate] | – | <0.01 | <0.01 | <0.01 | <0.01 | 0.02 | insoluble | 0 | insoluble | 0 | 0.01 | – | – | – | – | –
3 | CC1O[B-]2(OC(=O)C(=O)O2)OC1=O.[Li+] (stereo not shown) [LLOB, Lithium-(lactato,oxalato)borate] | – | 0.93 | 0.17 | 1.59 | 1.38 | 0.96 | – | 6.52 | – | 2.91 | 2.61 | ca. 270 °C | ca. 5 V | – | – | –
4 | O=C1CC(=O)O[B-]2(O1)OC(=O)CC(=O)O2.[Li+] [LMB, Lithium-bis(malonato)borate] | – | 0.003 | 0.02 | 0.09 | 0.03 | 0.13 | – | – | – | 0.01 | 1.65 | – | – | up to 5 V | 5 | 0.08
5 | O=C1O[B-]2(OC1=O)OC(=O)C(=O)O2.[Li+] [LOB, Lithium-bis(oxalato)borate] | – | 1.30 | 0.88 | 1.90 | 1.82 | 1.55 | – | – | – | – | 6.96 | – | – | about 4.5 V | >50 | –
6 | O=C1CC(=O)O[B-]2(O1)OC(=O)C(=O)O2.[Li+] [LOMB, Lithium-(malonato,oxalato)borate] | – | 0.20 | 0.17 | 0.17 | 0.43 | 0.62 | – | – | – | 0.41 | 3.59 | – | – | – | 15 | –
7 | O=C1O[B-]2(OC1=O)OC(=O)c1ccccc1O2.[Li+] [LOSB, Lithium-(oxalato,salicylato)borate] | – | 0.43 | 1.50 | 1.21 | 0.51 | 0.98 | – | 4.17 | – | 3.17 | – | ca. 210 °C | – | – | – | –
